Common to all, as to assay type: cell-based
Assay [1] relates to Human esophageal cancer cells OE33. In words: Tumor cell growth inhibitory activity (CCK-8), OE33. How it is done: (§1) Human esophageal cancer cells OE33 (human breast adenocarcinoma cells SK-BR-3, or human gastric cancer cells NCI-N87) was cultured in RPMI1640 (Cellmax) supplemented with 10% fetal bovine serum (Cellmax). Cells in the exponential growth phase were diluted to a concentration of 1×10^5 cells/mL by culture medium and added to 96-well cell culture plates at 100 μL per well, then returned back and incubated overnight in a 37° C. incubator with 5% CO2. On the following day, the compounds were diluted to concentrations of 10000 nM, 2000 nM, 400 nM, 80 nM, 16 nM, 3.2 nM, 0.64 nM, and 0.13 nM by culture medium and the diluted compounds were added to the 96-well cell culture plates at 2 μL per well, with three replicate wells for each concentration. Negative control and blank control groups without addition of compounds were added with 2 μL of the dilution liquid per well. After the addition of the compounds, the plates were returned back to the 37° C. incubator with 5% CO2 to continue the incubation for 72 h. After the incubation, the cell culture plates were removed, and the culture medium was aspirated using a pipette. Then, 100 μL of culture medium containing 10% CCK-8 was added to each well, and the plates were incubated at 37° C. for 3 h. After the incubation, the plates were removed, kept in the dark, and placed in an ELISA plate. Absorbance was measured at 630 nm as the reference wavelength and 450 nm as the test wavelength. The IC50 values (Table 2) were calculated using the four-parameter logistic regression method in GraphPad.

The test system of assay [2] is human breast adenocarcinoma cells SK-BR-3. In words: Tumor cell growth inhibitory activity (CCK-8), SK-BR-3. The protocol:
as §1

The subject of assay [3] is human gastric cancer cells NCI-N87. In words: Tumor cell growth inhibitory activity (CCK-8), NCI-N87. How it is done:
as §1

Another assay has as its system NCI-H1975. The experiment in a line: Tumor cell growth inhibitory activity, NCI-H1975.
The next assay has as its system MDA-MB-231. In words: Tumor cell growth inhibitory activity, MDA-MB-231.
Where [4] appears, read: Homo sapiens, OE33 cells, 72 h incubation, CCK-8, read-out: IC50 (nM) for inhibiting the growth of tumor cells, OE33.
Setting [5] is: Homo sapiens, SK-BR-3 cells, 72 h incubation, CCK-8, read-out: IC50 (nM) for inhibiting the growth of tumor cells, SK-BR-3.
Setting [6] is: Homo sapiens, NCI-N87 cells, 72 h incubation, CCK-8, read-out: IC50 (nM) for inhibiting the growth of tumor cells, NCI-N87.
Setting [7] is: Homo sapiens, NCI-H1975 cells, read-out: IC50 (nM) for inhibiting the growth of tumor cells, NCI-H1975.
The mark [8] stands for this setting: Homo sapiens, MDA-MB-231 cells, read-out: IC50 (nM) for inhibiting the growth of tumor cells, MDA-MB-231.
[9] abbreviates: Homo sapiens, OE33, 72 h, read-out: IC50 (nM) for inhibiting the growth of tumor cells, OE33, OE33 cells, 72 h incubation, CCK-8.
Setting [10] is: Homo sapiens, SK-BR-3, 72 h, read-out: IC50 (nM) for inhibiting the growth of tumor cells, SK-BR-3, SK-BR-3 cells, 72 h incubation, CCK-8.
Where [11] appears, read: Homo sapiens, NCI-N87, 72 h, read-out: IC50 (nM) for inhibiting the growth of tumor cells, NCI-N87, NCI-N87 cells, 72 h incubation, CCK-8.
[12] abbreviates: Homo sapiens, NCI-H1975, read-out: IC50 (nM) for inhibiting the growth of tumor cells, NCI-H1975, NCI-H1975 cells.
Setting [13] is: Homo sapiens, MDA-MB-231, read-out: IC50 (nM) for inhibiting the growth of tumor cells, MDA-MB-231, MDA-MB-231 cells.
The mark [14] stands for this setting: read-out: IC50 (nM) for inhibiting the growth of tumor cells, OE33, OE33 cells, 72 h incubation, CCK-8.
Where [15] appears, read: read-out: IC50 (nM) for inhibiting the growth of tumor cells, SK-BR-3, SK-BR-3 cells, 72 h incubation, CCK-8.
The mark [16] stands for this setting: read-out: IC50 (nM) for inhibiting the growth of tumor cells, NCI-N87, NCI-N87 cells, 72 h incubation, CCK-8.
Setting [17] is: read-out: IC50 (nM) for inhibiting the growth of tumor cells, NCI-H1975, NCI-H1975 cells.

Read-outs that look alike come from different tables or passages of the source.

One may read the IC50 as the midpoint of a concentration-inhibition curve.

As for `CC[C@@]1(O)C(=O)OCc2c1cc1n(c2=O)Cc2c-1nc1cc(F)c(C)cc1c2CCN[C@@H](C)CCO` [Compound 9, 7-(2-((S)-4-Hydroxybutan-2-yl)amino)ethyl-10-methyl-11-fluorocamptothecin], the IC50 is 6.59 nM in assay [1] (setting [4]); 14.1 nM in assay [2] (setting [5]); 1.6 nM in assay [3] (setting [6]); 121 nM in the assay on NCI-H1975 (setting [7]); 173 nM in the assay on MDA-MB-231 (setting [8]).

Regarding `CC[C@@]1(O)C(=O)OCc2c1cc1n(c2=O)Cc2c-1nc1cc3c(cc1c2CCN[C@@H]1CCOC1)OCO3` [Compound 34, 7-(2-(N-(R)-Tetrahydrofuran-3-ylamino))ethyl-10,11-methylenedioxycamptothecin], the IC50 came to 2.94 nM in assay [1] (setting [9]); 0.45 nM in assay [2] (setting [10]); 54.2 nM in assay [3] (setting [11]); 14.4 nM with NCI-H1975 (setting [12]); 41.8 nM in the assay on MDA-MB-231 (setting [13]).

As for `CC[C@@]1(O)C(=O)OCc2c1cc1n(c2=O)Cc2c-1nc1cc3c(cc1c2CCN[C@H]1CCOC1)OCO3` [Compound 35, 7-(2-(N-(S)-Tetrahydrofuran-3-ylamino))ethyl-10,11-methylenedioxycamptothecin], the IC50 in assay [1] (setting [9]) was found to be 2.18 nM; in assay [2] (setting [10]), 0.87 nM; in assay [3] (setting [11]), 54 nM; with NCI-H1975 (setting [12]) it was 18.5 nM; in the assay on MDA-MB-231 (setting [13]), 73.5 nM.

For the compound `CC[C@@]1(O)C(=O)OCc2c1cc1n(c2=O)Cc2c-1nc1cc3c(cc1c2CCNCCN=[N+]=[N-])OCO3` [Compound 16, 7-(2-(2-Azidoethyl)amino)ethyl-10,11-methylenedioxycamptothecin], the IC50 was found to be 3.13 nM in assay [1] (setting [14]); 8.96 nM in assay [2] (setting [15]); 1.01 nM in assay [3] (setting [16]); 9.22 nM in the assay on NCI-H1975 (setting [17]); 116 nM with MDA-MB-231 (read-out: IC50 (nM) for inhibiting the growth of tumor cells, MDA-MB-231, MDA-MB-231 cells).

For the compound `CC[C@@]1(O)C(=O)OCc2c1cc1n(c2=O)Cc2c-1nc1cc(F)c(C)c3c1c2[C@@H](NC(=O)CO)CC3` [Dxd, reference compound], the IC50 in assay [1] (OE33 cells, 72 h incubation, CCK-8, read-out: IC50 (nM) for inhibiting the growth of tumor cells, OE33) amounted to 7.01 nM; in assay [2] (SK-BR-3 cells, 72 h incubation, CCK-8, read-out: IC50 (nM) for inhibiting the growth of tumor cells, SK-BR-3) it was 9.69 nM; in assay [3] (NCI-N87 cells, 72 h incubation, CCK-8, read-out: IC50 (nM) for inhibiting the growth of tumor cells, NCI-N87) it was 2.48 nM; with NCI-H1975 (NCI-H1975 cells, read-out: IC50 (nM) for inhibiting the growth of tumor cells, NCI-H1975), 286 nM; in the assay on MDA-MB-231 (MDA-MB-231 cells, read-out: IC50 (nM) for inhibiting the growth of tumor cells, MDA-MB-231), 135 nM.

For the compound `CC[C@@]1(O)C(=O)OCc2c1cc1n(c2=O)Cc2c-1nc1cc(F)c(F)cc1c2CCN[C@@H](C)COC` [Compound 11, 7-(2-((S)-2-Methoxyisopropyl)amino)ethyl-10,11-difluorocamptothecin], the IC50 in assay [1] (setting [4]) was found to be 7.26 nM; in assay [2] (setting [5]) it was 19.2 nM; in assay [3] (setting [6]), 1.67 nM; with NCI-H1975 (setting [7]), 12.6 nM; in the assay with MDA-MB-231 (setting [8]) it was 157 nM.

Regarding `CC[C@@]1(O)C(=O)OCc2c1cc1n(c2=O)Cc2c-1nc1cc(F)c(F)cc1c2CCNC1CCC(OC)CC1` (stereo partly shown) [Compound 14, 7-(2-(4-Methoxycyclohexyl)amino)ethyl-10,11-difluorocamptothecin], the IC50 came out at 26.1 nM in assay [1] (setting [4]); 36.1 nM in assay [2] (setting [5]); 5.3 nM in assay [3] (setting [6]); 383 nM in the assay on NCI-H1975 (setting [7]); 460 nM with MDA-MB-231 (setting [8]).

Regarding `CC[C@@]1(O)C(=O)OCc2c1cc1n(c2=O)Cc2c-1nc1cc3c(cc1c2CCNC1CCC(OC)CC1)OCCO3` (stereo partly shown) [Compound 44, 7-(2-(4-Methoxycyclohexyl)amino)ethyl-10,11-ethylenedioxycamptothecin], the half-maximal inhibitory concentration (IC50) turned out to be 13.8 nM in assay [1] (setting [4]); 33.6 nM in assay [2] (setting [5]); 3.54 nM in assay [3] (setting [6]); 27.1 nM in the assay with NCI-H1975 (setting [7]); 88.5 nM in the assay on MDA-MB-231 (setting [8]).

On to `CC[C@@]1(O)C(=O)OCc2c1cc1n(c2=O)Cc2c-1nc1cc3c(cc1c2CCN[C@@H](C)CN=[N+]=[N-])OCO3` [Compound 29, 7-(2-((S)-Azidoisopropyl)amino)ethyl-10,11-methylenedioxycamptothecin], for which the IC50 in assay [1] (setting [9]) stood at 1.4 nM; in assay [2] (setting [10]), 2 nM; in assay [3] (setting [11]), 0.84 nM; with NCI-H1975 (setting [12]) it was 5.56 nM; in the assay on MDA-MB-231 (setting [13]), 32.7 nM.

As for `CC[C@@]1(O)C(=O)OCc2c1cc1n(c2=O)Cc2c-1nc1cc(F)c(C)cc1c2CCNC(C)=O` [Compound 1, 7-(2-Acetylamino)ethyl-10-methyl-11-fluorocamptothecin], the half-maximal inhibitory concentration (IC50) in assay [1] (setting [4]) came out at 21.3 nM; in assay [2] (setting [5]) it was 19.5 nM; in assay [3] (setting [6]), 3.78 nM; in the assay with NCI-H1975 (setting [7]) it was 361 nM; in the assay on MDA-MB-231 (setting [8]), 350 nM.

As for `CC[C@@]1(O)C(=O)OCc2c1cc1n(c2=O)Cc2c-1nc1cc(F)c(C)cc1c2CCNC1CCOCC1` [Compound 4, 7-(2-(Tetrahydropyran-4-yl)amino)ethyl-10-methyl-11-fluorocamptothecin], the IC50 in assay [1] (setting [4]) was 4.39 nM; in assay [2] (setting [5]), 6.12 nM; in assay [3] (setting [6]), 2.48 nM; in the assay with NCI-H1975 (setting [7]), 247 nM; with MDA-MB-231 (setting [8]) it was 321 nM.

Turning to `CC[C@@]1(O)C(=O)OCc2c1cc1n(c2=O)Cc2c-1nc1cc3c(cc1c2CCNCCOC)OCCO3` [Compound 42, 7-(2-(2-Methoxyethyl)amino)ethyl-10,11-ethylenedioxycamptothecin], the IC50 in assay [1] (setting [4]) was determined as 9.95 nM; in assay [2] (setting [5]), 18 nM; in assay [3] (setting [6]) it was 9.96 nM; with NCI-H1975 (setting [7]) it was 26.6 nM; in the assay on MDA-MB-231 (setting [8]), 94.8 nM.

For the compound `CC[C@@]1(O)C(=O)OCc2c1cc1n(c2=O)Cc2c-1nc1cc3c(cc1c2CCN[C@@H](C)CCO)OCO3` [Compound 18, 7-(2-((S)-4-Hydroxybutyl-2-yl)amino)ethyl-10,11-methylenedioxycamptothecin], the IC50 in assay [1] (setting [14]) amounted to 20.4 nM; in assay [2] (setting [15]), 17.1 nM; in assay [3] (setting [16]), 3.63 nM; in the assay with NCI-H1975 (setting [17]) it was 222 nM; in the assay with MDA-MB-231 (setting [13]), 446 nM.

`CC[C@@]1(O)C(=O)OCc2c1cc1n(c2=O)Cc2c-1nc1cc3c(cc1c2CCNCC(F)F)OCO3` [Compound 24, 7-(2-(2-Difluoroethyl)amino)ethyl-10,11-methylenedioxycamptothecin]: the IC50 amounted to 0.56 nM in assay [1] (setting [9]); 2.96 nM in assay [2] (setting [10]); 0.24 nM in assay [3] (setting [11]); 15.6 nM with NCI-H1975 (setting [12]); 78.2 nM in the assay on MDA-MB-231 (setting [13]).

As to `CC[C@@]1(O)C(=O)OCc2c1cc1n(c2=O)Cc2c-1nc1cc3c(cc1c2CCNC1CCC(OC)CC1)OCO3` (stereo partly shown) [Compound 27, 7-(2-(4-Methoxycyclohexyl)amino)ethyl-10,11-methylenedioxycamptothecin], the IC50 in assay [1] (setting [9]) turned out to be 7.9 nM; in assay [2] (setting [10]), 26.1 nM; in assay [3] (setting [11]) it was 2.91 nM; in the assay with NCI-H1975 (setting [12]) it was 30.2 nM; with MDA-MB-231 (setting [13]), 155 nM.

Regarding `CC[C@@]1(O)C(=O)OCc2c1cc1n(c2=O)Cc2c-1nc1cc(F)c(F)cc1c2CCNC1CCOCC1` [Compound 13, 7-(2-(Tetrahydropyran-4-yl)amino)ethyl-10,11-difluorocamptothecin], the IC50 was 1.96 nM in assay [1] (setting [4]); 5.63 nM in assay [2] (setting [5]); 0.93 nM in assay [3] (setting [6]); 9.83 nM in the assay on NCI-H1975 (setting [7]); 72.7 nM in the assay with MDA-MB-231 (setting [8]).

As for `CC[C@@]1(O)C(=O)OCc2c1cc1n(c2=O)Cc2c-1nc1cc3c(cc1c2CCN[C@@H](C)COC)OCCO3` [Compound 45, 7-(2-((S)-Methoxyisopropyl)amino)ethyl-10,11-ethylenedioxycamptothecin], the IC50 in assay [1] (setting [4]) stood at 10.3 nM; in assay [2] (setting [5]) it was 18.5 nM; in assay [3] (setting [6]) it was 2.46 nM; in the assay on NCI-H1975 (setting [7]) it was 106 nM; in the assay on MDA-MB-231 (setting [8]), 960 nM.

The values are drawn from patent US20260042774A1, “CAMPTOTHECIN-7-ETHYLAMINE DERIVATIVE, PREPARATION METHOD THEREFOR, AND USE THEREOF” (HANGZHOU ADCORIS BIOPHARMA CO., LTD, priority 2022, published 2026).
